Here are results for one compound from US20220000811A1, “COMPOSITION FOR PROMOTING HAIR GROWTH COMPRISING A GUANINE DERIVATIVE” (KOREA RESEARCH INSTITUTE OF BIOSCIENCE AND BIOTECHNOLOGY, priority 2019, published 2022).

Series [1] has as its system C57BL/6 mice. The series is described as follows: Side effects observed during hair regeneration experiment. In kind it is in vivo, mouse. Conditions: topical treatment during the experiment. The procedure:
(§1) During the hair telogen phase, the hair on the dorsal skin of 7-week-old C57BL/6 mice (Dae Han BioLink, Chungbuk, Republic of Korea) was depilated using an animal clipper and wax (Veet, Oxy Reckitt Benckiser, Seoul, Republic of Korea). From the next day, 200 μL of placebo (control), 1% IM, 1% minoxidil, or 1% metformin was applied daily to the depilated area using a sterile cotton swab. Images of each animal were captured daily, and the degree of darkness of the color on dorsal skin was quantified in the same area (1.6 cm×3 cm) using the Image J program. The mice were sacrificed, and skin tissues on days 0, 7, 14, and 20 were obtained. Half of the tissues were used for RNA isolation, and the other half were fixed with 4% paraformaldehyde overnight for histochemical analysis.

Series [2] relates to auricle. As to the kind of experiment: Auricle punch analysis (auricular tissue repair). In kind it is in vivo, mouse. The conditions noted are these: 2 mm ear punch holes, daily topical application, indicated concentrations. How it is done: For the auricular tissue repair analysis, three holes with a diameter of 2 mm were drilled in each ear using a punching instrument (Fine Science Tools, British Columbia, Canada). IM at the indicated concentration was applied daily with a sterile cotton swab. The hole area was measured with digital calipers (VWR, Radnor, Pa., USA).

The test system of series [3] is human foreskin fibroblast (HFFs). As to the kind of experiment: Reprogramming into iPSCs (OSKM) in human foreskin fibroblasts, AP staining. In kind it is cell-based. The procedure:
After 28 days, AP staining was performed (FIG. 3a), and the number of AP^+ colonies was quantified (FIG. 3b).

Series [4] relates to mouse embryonic fibroblasts (MEFs). As to the kind of experiment: Reprogramming into iPSCs (OSKM) in mouse embryonic fibroblasts, AP staining. In kind it is cell-based. The conditions noted are these: MEFs; for enhancing reprogramming efficiency: 14 days. The procedure:
During reprogramming into iPSCs by introducing OSKM reprogramming factor into mouse embryonic fibroblasts (MEFs), rotenone, the guanidine derivatives of the present invention, and phenformin were treated at the indicated concentrations. After 14 days, alkaline phosphatase (AP) staining was performed (FIG. 2A), and the number of AP^+ colonies was quantified (FIG. 2b). […] In the subsequent experiment, additional efficacy was evaluated using only the three compounds showing the effective reprogramming-enhancing effect.

Series [5] has as its system hair follicles. The series is described as follows: Quantitative histomorphometric analysis of hair follicle cycle and number (H&E). In kind it is in vivo, mouse. How it is done: During the hair telogen phase, the hair on the dorsal skin of 7-week-old C57BL/6 mice (Dae Han BioLink, Chungbuk, Republic of Korea) was depilated using an animal clipper and wax (Veet, Oxy Reckitt Benckiser, Seoul, Republic of Korea). From the next day, 200 μL of placebo (control), 1% IM, 1% minoxidil, or 1% metformin was applied daily to the depilated area using a sterile cotton swab. Images of each animal were captured daily, and the degree of darkness of the color on dorsal skin was quantified in the same area (1.6 cm×3 cm) using the Image J program. The mice were sacrificed, and skin tissues on days 0, 7, 14, and 20 were obtained. Half of the tissues were used for RNA isolation, and the other half were fixed with 4% paraformaldehyde overnight for histochemical analysis. The tissues fixed in Example 1.1. were immersed in 30% sucrose, and then embedded in an OCT compound (Sakura Finetek USA Inc, Torrance, Calif., USA). Frozen fragments were obtained using a cryostat sectioning device (Leica, Wetzlar, Germany) and stained using hematoxylin (Sigma) and eosin (Sigma) (H&E), or each of the antibodies shown in Table 1 below. Immunohistochemical analysis was performed, and fluorescence images were taken with an Olympus microscope (Olympus) According to the guidelines for accurately classifying the hair cycle stages, the hair cycle was quantified by classifying individual hair follicles with H&E staining micrographs in the longitudinal section of each mouse (n>10). The percentage of the anagen phase of the hair was calculated for each group. Hair follicles in the same area (1300 μm width) were counted by H&E staining micrographs in the cross section of each mouse (n>10).

The subject of series [6] is C57BL/6 mice. The series is described as follows: Hair regeneration model, darkness of dorsal skin and hair growth. In kind it is in vivo, mouse. The procedure: as §1, with “analysis. It was confirmed whether the IM compound can promote hair growth without showing toxicity or other side effects through mouse experiments. In 7-week-old C57BL/6 mice, the telogen phase was motivated by hair removal, and various concentrations of IM were applied topically to the dorsal skin of the mice daily.” for “analysis.”

Series [7] concerns HK2, LDHA, NDUS3, ATP5B, Wnt1a, Lef-1, Gli-1, versican. As to the kind of experiment: Expression of genes related to metabolism and hair regeneration in skin tissue. In kind it is in vivo, mouse. How it is done:
as §1, with “analysis. The level of expression of genes related to metabolism and hair regeneration was analyzed through the skin tissue of each mouse group.” for “analysis.”

Structures are written as SMILES. Where only a bound is given, the exact number is not on record here.

Consider `Cc1ccccc1CCNC(=N)NC(=N)N` [IM176OUT05, N-1-(2-methyl)phenethylbiguanide], for which the “side effects, including skin problems” value in series [1] was “No side effects”. Also, in series [2], the “wound area of the auricle” value was “reduced the wound area of the auricle in a dose-dependent manner”. For the same compound, the enhancing reprogramming efficiency in series [3] (10 nM, 100 nM, and 500 nM, 28 days) is ≥ 2.4 times; in series [4] (10 nM), 16.8 times; in series [4] (20 nM) it was 13.9 times; in series [4] (50 nM), 13.7 times. For the same compound, the “concentration with the most excellent reprogramming efficacy” value in series [3] (OSKM, after 28 days) is 10 nM. Further, the “effect on reprogramming, number of AP+ colonies” value in series [4] (OSKM, after 14 days, indicated concentrations) is “increased”. Further, the “number of hair follicles compared to control” value is listed as “significantly increased” in series [5] (day 7, cross section) and “significantly higher” in series [5] (day 20). In addition, in series [5] (day 20, longitudinal section), the “stage of most hair follicles” value is “growth phases V and VI”. Further, in series [5] (histomorphometry), the “progression of the hair follicle cycle” value is “stimulated the progression of the hair follicle cycle”. For the same compound, the “black pigmentation and hair growth” value in series [6] (1% topical daily on dorsal skin, day 9) was “remarkably observed”. Moreover, the “hair growth, male and female mice” value in series [6] (1% topical daily, comparison with minoxidil) was “promoted hair growth in both male and female mice”. Also, the “skin color compared to control or minoxidil-treated mice” value in series [6] (1% topical daily, day 8) is “clearly darkened”. The hair growth result in series [6] (1% topical daily, day 10) was “markedly promoted”. Further, the “hair growth in female mice” value in series [6] (1% topical daily, female mice) is “strong promoting effect”. Further, in series [6] (female mice), the “effect compared to minoxidil, independent experiment” value is reported as “excellent effect as compared to minoxidil”. Moreover, the “expression of stemness-related genes (Wnt1a, Lef-1, Gli-1, and versican)” value in series [7] (day 7, skin) is “significantly upregulated”. The “expression of glycolysis-related enzymes (HK2 and LDHA)” value in series [7] (day 7, skin tissue) is on record as “significantly induced”. Further, in series [7] (day 20, skin), the “stemness-related genes compared to control” value is recorded as “significantly induced”. Further, the “expression of OXPHOS-related enzymes (NDUS3 and ATP5B) compared to control” value in series [7] (day 20, skin tissue) is reported as “increased”. The “expression of glycolysis-related enzymes (HK2 and LDHA) compared to control” value in series [7] (day 20, skin tissue) was “significantly increased”.
